Experimental data as given in US8969296B2, “TGFP-CAP peptide and its uses” (Caregen Co., Ltd, priority 2007, dated 2015).
Where a SMILES comes first, the peptide text is derived from it.

What was measured:
[1] = tested on: B16F10 cells; assay: Melanosome formation under ERK inhibition by PD98059 (microscopy); format: cell-based; settings: 10 μM PD98059; with 1 ng/ml transforming growth factor or 30 μg/ml tridecapeptide; 4 days
Procedure: To reveal skin whitening effects of the tridecapeptide synthesized in Example 1 and transforming growth factor, the activation of ERK was inhibited with PD98059 (Sigma) and then its inhibitory influence was evaluated after peptide treatment. B16F10 cells were seeded in 6-well culture dishes in a density of 1×10^5 cells/well and cultured in DMEM for 3 days at 37° C. under 5% CO2 conditions. After cell adhesion was observed, medium was changed with a fresh medium containing 2% serum. The negative control was not subject to any treatment. Cells plated in other two culture dishes were incubated with either 1 ng/ml transforming growth factor or 30 μg/ml tridecapeptide. In addition, cells cultured in other three dishes as a positive control were incubated with 10 μM PD98059 to inhibit ERK phosphorylation. Among them, cells contained in two dishes were incubated for 4 days with either 1 ng/ml transforming growth factor or 30 μg/ml tridecapeptide after 1-hr PD98059 treatment and their morphology was observed under microscopes.

[2] = tested on: ERK 1/2; assay: Western blotting of Phospho ERK 1/2 in melanoma cells; format: cell-based; settings: 10 μM PD98059; with 10 ng/ml TGF-β1 or 30 μg/ml tridecapeptide
Procedure: Furthermore, to clearly verify the influence of TGF-β1 and tridecapeptide on signaling events, melanoma cells were cultured as described above and then incubated simultaneously with 10 μM PD98059 and 30 μg/ml tridecapeptide. Proteins from cell extracts were prepared and developed on SDS-PAGE, followed by electro-transferring to PVDF (polyvinylidene difluoride) membrane (GE Health Care). Afterwards, the PVDF membrane was incubated with Phospho ERK 1/2 antibodies (1/3000 diluted, Cell Signaling, USA) for 4 hr at room temperature. The PVDF membrane was washed with a washing buffer and incubated with HRP-conjugated anti-mouse IgG antibodies (1/5000 diluted, SantaCruz, USA). Then, it was washed twice with a washing buffer and incubated with ECL (enhanced chemilumineseance) solution (GE Health Care) (FIG. 6). In FIG. 6, among PD98059 treatment groups, the symbol “Con” is a group incubated with only 10 μM PD98059 and “TGFb1” is a group incubated with both 10 μM PD98059 and 10 ng/ml TGF-β1.

[3] = tested on: TRP-1 (tyrosinase related protein-1) and TRP-2; assay: Levels of TRP-1 and TRP-2 in melanoma cells (Western blotting); format: cell-based; settings: 10 μM PD98059; with 10 ng/ml TGF-β1 or 30 μg/ml tridecapeptide
[4] = tested on: HaCaT; assay: Cytotoxicity test, SRB colorimetric assay, keratinocytes; format: cell-based; settings: 500 pg/ml-200 μg/ml, 72 hr
Procedure: (§1) To verify cytotoxicity of peptides of this invention on keratinocytes, fibroblasts and melanoma cells, SRB (Sulforhodamine B) colorimetric assay was carried out using HaCaT, NIH3T3 and B16F10 cells according to Rizzino et al method (Rizzino, et al. Cancer Res., 48:4266 (1988)). HaCaT, NIH3T3 or B16F10 cells (Korean Cell Line Bank) were cultured in 250 ml-flasks containing EMEM (Eagle's minimal essential media, Gibco, U.S.A.) supplemented with […] (fetal bovine serum). Cells cultured were treated with 0.25% trypsin solution to detach cells from the bottom of culture flasks and centrifuged to collect cell pellets. Cells were resuspended in EMEM not containing FBS, its aliquot (1×10^5) cells was added to each well of 96-well plates and cultured under 7% CO2 for 24 hr at 37° C. After 24-hr culture, the medium was changed with a fresh medium not containing serum and cells were incubated with the tridecapeptide (500 pg/ml, 10 ng/ml, 1 μg/ml, 100 μg/ml and 200 μg/ml) dissolved in 10% DMSO for 72 hr under the same conditions as described above. After removing supernatants, cells were washed once using PBS and incubated with SRB solution (Sigma). Cells were washed with PBS and observed under a microscope to find cell viability. In addition, absorbance at 590 nm was measured to analyze cell proliferation.

[5] = tested on: NIH3T3; assay: Cytotoxicity test, SRB colorimetric assay, fibroblasts; format: cell-based; settings: 500 pg/ml-200 μg/ml, 72 hr
Procedure: as §1

[6] = tested on: B16F10; assay: Cytotoxicity test, SRB colorimetric assay, melanoma cells; format: cell-based; settings: 500 pg/ml-200 μg/ml, 72 hr
Procedure: as §1

[7] = tested on: NIH-3T3 cells; assay: Stability analysis: remaining activity of solutions stored at 37° C., by MTT assay; format: physicochemical; settings: 50 mM Tris-HCl (pH 8.0), days 0-100, tridecapeptide 10 μg/ml, TGF-β1 1 μg/ml
Procedure: To evaluate stability of the purified tridecapeptide, NH2-Ile-Trp-Ser-Leu-Asp-Thr-Gln-Tyr-Gly-Gly-Arg-Gly-Asp-OH, it was dissolved in 50 mM Tris-HCl (pH 8.0) to a concentration of 10 μg/ml. A recombinant TGF-β1 (Sigma) produced by E. coli was prepared as a control in the same buffer to a concentration of 1 μg/ml. The prepared solutions were introduced into glass vials and kept to stand at 37° C. Afterwards, the solutions were taken on days 0, 1, 10, 25, 50, 75 and 100 and subjected to a MTT assay (Scudiero, D. A., et al. Cancer Res. 48:4827-4833 (1988)) using NIH-3T3 cells (Korean Cell Line Bank) for determining their remaining activity (FIG. 2). The results were given as relative values to the activity (100%) of sample taken on day 0.

[8] = tested on: tyrosinase; assay: Tyrosinase activity in extracts of treated B16F10 cells (L-DOPA, absorbance 405 nm); format: cell-based; settings: α-MSH 200 ng/ml, TGFβ-1 10 ng/ml or peptide 10 ng/ml-30 μg/ml, 4 days
Procedure: The tridecapeptide synthesized in Example 1 was analyzed to decrease levels of melanin pigment. B16F10 cells (Korean Cell Line Bank) were plated in a density of 1×10^5 cells/well and cultured in DMEM (Sigma) for 3 days at 37° C. under 5% CO2 conditions. After cell adhesion was observed, medium was changed with a fresh medium containing 2% serum. Cells were incubated with tested materials in determined concentrations for 4 days at 37° C. under 5% CO2 conditions. The tested materials were prepared in such a manner that components indicated in Table 6 were dissolved in medium and diluted with a mixed solvent of propylene glycol:ethanol:distilled water (5:3:2).
Afterwards, cells were harvested and treated with a lysis buffer containing sodiumdodecylsulfate (Sigma) and Triton X-100 (Sigma) to extract intracellular proteins. The extracted proteins were quantitated by the BCA method. For each experiment group, 90 μl of protein solution and 10 μl of L-DOPA (Sigma) were added and reacted for 30 min. The resultants were analyzed to measure their absorbance values at 405 nm for evaluating tyrosinase activities.

[9] = tested on: Mice melanocytes; assay: Inhibition of melanin generation induced by α-MSH (Dooley method); format: cell-based; settings: α-MSH 200 ng/ml; peptide 10 ng/ml-30 μg/ml; 3 days; absorbance 400 nm
Procedure: The tridecapeptide synthesized in Example 1 was analyzed to decrease levels of melanin pigment. Mice melanocytes cultured were incubated with α-MSH (melanocyte stimulating hormone/Sigma) and then with the tridecapeptide in the determined concentrations to measure inhibition effects on melanin generation. Mice melanocytes were originated from C57BL/6 mice and cultured in DMEM (Dulbecco's modified Eagle's media) containing 10% fetal bovine serum at 37° C. under 5% CO2 conditions. Cells were cultured in a density of 1×10^5 cells/well and their adhesion to culture plates was observed. Then, cells were incubated with materials to be tested for 3 days. The tested materials were prepared in such a manner that components indicated in Table 5 were dissolved in medium and diluted with a mixed solvent of propylene glycol:ethanol:distilled water (5:3:2). Following removal of medium, cells were washed with PBS and treated with 1 N sodium hydroxide. The resultants were analyzed to measure their absorbance values at 400 nm.

Molecule	melanosome number [1]	levels of Phospho ERK 1 and ERK 2 [2]	levels of TRP-1 and TRP-2 [3]	cell number (cytotoxicity) [4]	cell number (cytotoxicity) [5]	cell number (cytotoxicity) [6]	remaining activity over time (relative to day 0 = 100%) [7]	tyrosinase activity [8]	melanin generation / melanin content [9]
COc1cccc(-c2cc(=O)c3ccccc3o2)c1N [PD98059, reference compound]	a large number of darkish pigments by induced melanosomes	greatly decrease levels of Phoshpo ERK 1 and ERK 2	increased	–	–	–	–	–	–
CC[C@H](C)[C@H](N)C(=O)N[C@@H](Cc1c[nH]c2ccccc12)C(=O)N[C@@H](CO)C(=O)N[C@@H](CC(C)C)C(=O)N[C@@H](CC(=O)O)C(=O)N[C@H](C(=O)N[C@@H](CCC(N)=O)C(=O)N[C@@H](Cc1ccc(O)cc1)C(=O)NCC(=O)NCC(=O)N[C@@H](CCCNC(=N)N)C(=O)NCC(=O)N[C@@H](CC(=O)O)C(=O)O)[C@@H](C)O [tridecapeptide, NH2-Ile-Trp-Ser-Leu-Asp-Thr-Gln-Tyr-Gly-Gly-Arg-Gly-Asp-OH] (H-IWSLDTQYGGRGD-OH)	–	–	–	the decrease in cell number was not shown	the decrease in cell number was not shown	the decrease in cell number was not shown	–	–	–
TGF-β1: recombinant TGF-β1 (Sigma) produced by E. coli, used as control	significantly reduced melanosome number	elevated levels of Phoshpo ERK 1 and ERK 2	decreased	–	–	–	sharply decreased with the lapse of time	relatively reduced tyrosinase activity in a dose dependent manner	–
α-MSH: melanocyte stimulating hormone/Sigma, used to induce melanin generation (Ac-SYSMEHFRWGKPV-NH2; ends and bridges not checked; UniProt P01189 138-150, looked up) [reference compound]	–	–	–	–	–	–	–	highly elevated level of tyrosinase activity	highly elevated level of melanin production
